Values after ≈ are worked out from the molar mass of the structure shown. Read-outs that look alike come from different tables or passages of the source.
Assays:
[1] = test system: Bacillus anthracis (Sterne, ovine and pathogenic forms), Enterococcus faecalis and Bacillus cereus; conditions: Gram-positive bacteria; cited from earlier work
[2] = test system: E. coli NCTC 13846; experiment: Broth microdilution MIC/MBC, glycosides with or without polymyxins; format: cell-based, Escherichia coli; conditions: strain B
[3] = test system: Caco-2 cells; experiment: Resazurin cell viability assay (cytotoxicity); format: cell-based, human; conditions: read-out: IC50
Method in brief: (§1)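 HEK-293T and Caco-2 cells (1.5 × 10^4/well, RPMI 1640 with 10% FBS) exposed 72 h at 37 °C to glycosides at final 100 to 10 µM, alone or with PMB or colistin at final 0.5, 0.25 or 0.125 µg/mL; max DMSO 0.33%. Resazurin added 4 h, read 570/600 nm; IC50 from dose-response fits, mean ± SD of three replicates.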

[4] = test system: HEK-293T cells; experiment: Resazurin cell viability assay (cytotoxicity); format: cell-based, human; conditions: 72 h, read-out: IC50
Method in brief: as §1

[5] = test system: K. pneumoniae CQ4921; experiment: Broth microdilution MIC/MBC, glycosides with or without polymyxins; format: cell-based, Klebsiella pneumoniae; conditions: for MIC: Klebsiella pneumoniae, CQ4921
[6] = test system: E. coli ATCC 25922; experiment: as above; format: cell-based, Escherichia coli; conditions: for MIC: Escherichia coli, ATCC25922
[7] = test system: A. baumannii CQ4322; experiment: as above; format: cell-based, Acinetobacter baumannii; conditions: for MIC: Acinetobacter baumannii, CQ4322
[8] = alone, read-out: MICA (MIC of each compound individually)
[9] = combination with the lowest FICI
[10] = compound + colistin, lowest FICI

## CCCCCCCCCCCCO[C@H]1O[C@H](C)C[C@H](O)[C@H]1O [Compound 1, dodecyl 4,6-dideoxy-α/β-D-xylo-hexopyranoside]
[1]
  MIC: 12.6 µM (≈ 3.99 µg/mL)
[2]; Cpd conc. 0.4 μg/mL
  MIC of colistin in combination with the compound: > 0.5 mg/L
[2]; Cpd conc. 0.8 μg/mL
  MIC of colistin in combination with the compound: > 0.5 mg/L
[2]; Cpd conc. 3.125 μg/mL
  MIC of colistin in combination with the compound: > 0.5 mg/L
[2]; Cpd conc. 6.25 μg/mL
  MIC of colistin in combination with the compound: > 0.5 mg/L
[2]; Cpd conc. 12.5 μg/mL
  MIC of colistin in combination with the compound: > 0.5 mg/L
[2]; Cpd conc. […]
  MIC of colistin in combination with the compound: > 0.5 mg/L
[2]; Escherichia coli, NCTC13846, agent alone, no adjuvant (polymyxin conc. 0), read-out: MIC
  MIC: > 100 mg/L
[2]; PMB 0.25 μg/mL
  MIC of compound in combination with PMB: > 100 mg/L
[2]; PMB 0.5 μg/mL
  MIC of compound in combination with PMB: > 100 mg/L
[2]; colistin 0.06 μg/mL
  MIC of compound in combination with colistin: > 100 mg/L
[2]; colistin 0.125 μg/mL
  MIC of compound in combination with colistin: > 100 mg/L
[2]; colistin 0.25 μg/mL
  MIC of compound in combination with colistin: > 100 mg/L
[2]; colistin 0.5 μg/mL
  MIC of compound in combination with colistin: > 100 mg/L
[3]; Homo sapiens, Caco-2, 72 h, Colistin 0.25 μg/mL
  IC50: 54.7 ± 1.04 µM
[3]; Homo sapiens, Caco-2, 72 h, Colistin 0.5 μg/mL
  IC50: 52.5 ± 2.28 µM
[3]; Homo sapiens, Caco-2, 72 h, No polymyxin
  IC50: 54.2 ± 2.77 µM
[3]; Homo sapiens, Caco-2, 72 h, PMB 0.25 μg/mL
  IC50: 50.5 ± 0.15 µM
[3]; Homo sapiens, Caco-2, 72 h, PMB 0.5 μg/mL
  IC50: 52.2 ± 1.77 µM
[3]; Homo sapiens, Caco-2, 72 h, tested alone (no polymyxin adjuvant)
  IC50: 17.2 mg/L
[3]; No polymyxin, 72 h
  IC50: 54.3 µM
[4]; Homo sapiens, HEK-293T, Colistin 0.25 μg/mL
  IC50: 69.4 ± 2.58 µM
[4]; Homo sapiens, HEK-293T, Colistin 0.5 μg/mL
  IC50: 65.9 ± 3.75 µM
[4]; Homo sapiens, HEK-293T, No polymyxin
  IC50: 65.8 ± 1.28 µM
[4]; Homo sapiens, HEK-293T, PMB 0.125 μg/mL
  IC50: 64.6 ± 0.87 µM
[4]; Homo sapiens, HEK-293T, PMB 0.25 μg/mL
  IC50: 65.32 ± 0.4 µM
[4]; Homo sapiens, HEK-293T, PMB 0.5 μg/mL
  IC50: 67.7 ± 1.22 µM
[4]; Homo sapiens, HEK-293T, tested alone (no polymyxin adjuvant)
  IC50: 20.8 mg/L
[4]; No polymyxin
  IC50: 65.8 µM
[5]; Cpd conc. 0.4 μg/mL, strain C
  MIC of colistin in combination with the compound: > 0.5 mg/L
[5]; Cpd conc. 0.8 μg/mL, strain C
  MIC of colistin in combination with the compound: > 0.5 mg/L
[5]; Cpd conc. 3.125 μg/mL, strain C
  MIC of colistin in combination with the compound: 0.25 mg/L
[5]; Cpd conc. 6.25 μg/mL, strain C
  MIC of colistin in combination with the compound: 0.25 mg/L
[5]; Cpd conc. 12.5 μg/mL, strain C
  MIC of colistin in combination with the compound: 0.25 mg/L
[5]; Cpd conc. […], strain C
  MIC of colistin in combination with the compound: 0.5 mg/L
[5]; agent alone, no adjuvant (polymyxin conc. 0), strain C, read-out: MIC
  MIC: > 100 mg/L
[5]; [8]
  MIC: > 100 mg/L
[5]; PMB 0.25 μg/mL, strain C
  MIC of compound in combination with PMB: > 100 mg/L
[5]; PMB 0.5 μg/mL, strain C
  MIC of compound in combination with PMB: 1.6 mg/L
[5]; colistin 0.06 μg/mL, strain C
  MIC of compound in combination with colistin: > 100 mg/L
[5]; colistin 0.125 μg/mL, strain C
  MIC of compound in combination with colistin: > 100 mg/L
[5]; colistin 0.25 μg/mL, strain C
  MIC of compound in combination with colistin: 3.1 mg/L
[5]; colistin 0.5 μg/mL, strain C
  MIC of compound in combination with colistin: 1.6 mg/L
[5]; [9]
  MICA(A + B) (MIC of compound in combination with colistin): 3.125 mg/L
  MICB(A + B) (MIC of colistin in combination with compound): 0.25 mg/L
[5]; compound + colistin
  Interpretation (of FICI): Additive (from 0.5 to 1.0 were additive)
[5]; [10]
  FICI: 0.52
[6]; Cpd conc. 0.4 μg/mL, strain A
  MIC of colistin in combination with the compound: > 0.5 mg/L
[6]; Cpd conc. 0.8 μg/mL, strain A
  MIC of colistin in combination with the compound: > 0.5 mg/L
[6]; Cpd conc. 3.125 μg/mL, strain A
  MIC of colistin in combination with the compound: 0.25 mg/L
[6]; Cpd conc. 6.25 μg/mL, strain A
  MIC of colistin in combination with the compound: 0.25 mg/L
[6]; Cpd conc. 12.5 μg/mL, strain A
  MIC of colistin in combination with the compound: 0.25 mg/L
[6]; Cpd conc. […], strain A
  MIC of colistin in combination with the compound: > 0.5 mg/L
[6]; agent alone, no adjuvant (polymyxin conc. 0), strain A, read-out: MIC
  MIC: > 100 mg/L
[6]; [8]
  MIC: > 100 mg/L
[6]; PMB 0.25 μg/mL, strain A
  MIC of compound in combination with PMB: > 100 mg/L
[6]; PMB 0.5 μg/mL, strain A
  MIC of compound in combination with PMB: 3.1 mg/L
[6]; colistin 0.06 μg/mL, strain A
  MIC of compound in combination with colistin: > 100 mg/L
[6]; colistin 0.125 μg/mL, strain A
  MIC of compound in combination with colistin: > 100 mg/L
[6]; colistin 0.25 μg/mL, strain A
  MIC of compound in combination with colistin: 3.1 mg/L
[6]; colistin 0.5 μg/mL, strain A
  MIC of compound in combination with colistin: 3.1 mg/L
[6]; [9]
  MICA(A + B) (MIC of compound in combination with colistin): 3.125 mg/L
  MICB(A + B) (MIC of colistin in combination with compound): 0.25 mg/L
[6]; compound + colistin
  Interpretation (of FICI): Additive (from 0.5 to 1.0 were additive)
[6]; [10]
  FICI: 0.52
[7]; agent alone, no adjuvant (polymyxin conc. 0), strain G, read-out: MIC
  MIC: > 100 mg/L
[7]; [8]
  MIC: > 100 mg/L
[7]; Cpd conc. 0.4 μg/mL, strain G
  MIC of colistin in combination with the compound: > 0.5 mg/L
[7]; Cpd conc. 0.8 μg/mL, strain G
  MIC of colistin in combination with the compound: > 0.5 mg/L
[7]; Cpd conc. 3.125 μg/mL, strain G
  MIC of colistin in combination with the compound: 0.25 mg/L
[7]; Cpd conc. 6.25 μg/mL, strain G
  MIC of colistin in combination with the compound: 0.25 mg/L
[7]; Cpd conc. 12.5 μg/mL, strain G
  MIC of colistin in combination with the compound: 0.25 mg/L
[7]; Cpd conc. […], strain G
  MIC of colistin in combination with the compound: 0.5 mg/L
[7]; PMB 0.25 μg/mL, strain G
  MIC of compound in combination with PMB: > 100 mg/L
[7]; PMB 0.5 μg/mL, strain G
  MIC of compound in combination with PMB: 3.1 mg/L
[7]; colistin 0.06 μg/mL, strain G
  MIC of compound in combination with colistin: > 100 mg/L
[7]; colistin 0.125 μg/mL, strain G
  MIC of compound in combination with colistin: > 100 mg/L
[7]; colistin 0.25 μg/mL, strain G
  MIC of compound in combination with colistin: 3.1 mg/L
[7]; colistin 0.5 μg/mL, strain G
  MIC of compound in combination with colistin: 1.6 mg/L
[7]; [9]
  MICA(A + B) (MIC of compound in combination with colistin): 3.125 mg/L
  MICB(A + B) (MIC of colistin in combination with compound): 0.25 mg/L
[7]; compound + colistin
  Interpretation (of FICI): Additive (from 0.5 to 1.0 were additive)
[7]; [10]
  FICI: 0.52
